# Data taken from ChEMBL document CHEMBL5260820, “Discovery of novel steroidal histamine H3 receptor antagonists/inverse agonists” (Bioorg Med Chem Lett, 2017).
# Assays:
# [1] = target: T1, Histamine H3 receptor (Homo sapiens, UniProt Q9Y5N1); test: Displacement of N-alpha-[methyl-3H]-methylhistamine dihydrochloride from recombinant human histamine H3 receptor expressed in CHO-K1 cells assessed as inhibition constant incubated for 30 mins by liquid scintillation analysis; format: cell-based
# [2] = target: T1, Histamine H3 receptor; test: Inverse agonist activity at recombinant human histamine H3 receptor expressed in CHO-K1 cells preincubated for 10 mins followed by [35S]GTPgammaS addition and measured after 60 mins by TopCount NXT based scintillation analysis; format: cell-based
# [3] = target: Histamine H3 receptor (Rattus norvegicus, UniProt Q9QYN8); test: Displacement of N-alpha-[methyl-3H]-methylhistamine dihydrochloride from Sprague-Dawley rat brain membrane histamine H3 receptor assessed as inhibition constant incubated for 30 mins by liquid scintillation counting analysis; format: cell membranes
# [4] = target: T1, Histamine H3 receptor; test: Antagonist activity at human histamine H3 receptor expressed in CHO-K1 cells assessed as inhibition of imetit-stimulation ERK1/2 phosphorylation by ELISA analysis; format: cell-based
# [5] = species: Rattus norvegicus; test: Displacement of [3H]quinuclidinyl benzilate from Wistar rat cortex muscarinic AChR at 1 uM by liquid scintillation counting analysis relative to control; format: tissue-based
# [6] = species: Rattus norvegicus; test: Displacement of [3H]quinuclidinyl benzilate from Wistar rat cortex muscarinic AChR at 3 uM by liquid scintillation counting analysis relative to control; format: tissue-based
# [7] = Displacement of [3H]quinuclidinyl benzilate from Wistar rat cortex muscarinic AChR assessed as inhibition constant by liquid scintillation counting analysis; format: tissue-based
# [8] = Volume of distribution in Wistar rat at 3 mg/kg, po or iv measured upto 5 hrs by HPLC-MS/MS analysis; format: ADME, organism-based; conditions: in vivo
# [9] = Stability in rat microsomes; format: ADME, Microsome
# [10] = Apparent permeability in vinblastine treated human CaCo-2 cells; format: ADME, cell-based
# [11] = Thermodynamic […] of the compound measured after 24 hrs by HPLC-UV-MS analysis; format: physicochemical; conditions: read-out: Therm_solubility
# [12] = target: T1, Histamine H3 receptor; test: Inverse agonist activity at recombinant human histamine H3 receptor expressed in CHO-K1 cells assessed as maximal efficacy preincubated for 10 mins followed by [35S]GTPgammaS addition and measured after 60 mins by TopCount NXT based scintillation analysis relative to control; format: cell-based; conditions: time 70.0 min
# [13] = Terminal half-life in Wistar rat plasma at 3 mg/kg, po or iv measured upto 5 hrs by HPLC-MS/MS analysis; format: ADME, organism-based; conditions: read-out: beta t1/2 (converted)
# [14] = Terminal half-life in Wistar rat brain at 3 mg/kg, po or iv measured upto 5 hrs by HPLC-MS/MS analysis; format: ADME, organism-based; conditions: read-out: beta t1/2 (converted)
# [15] = Tmax in Wistar rat at 3 mg/kg, po or iv measured upto 5 hrs by HPLC-MS/MS analysis; format: ADME, organism-based; conditions: in vivo
# [16] = Bioavailability in Wistar rat at 3 mg/kg, po or iv measured upto 5 hrs by HPLC-MS/MS analysis; format: ADME, organism-based; conditions: in vivo
# [17] = Selectivity index, ratio of Ki for displacement of [3H]quinuclidinyl benzilate from Wistar rat cortex muscarinic AChR to Ki for N-alpha-[methyl-3H]-methylhistamine dihydrochloride from Sprague-Dawley rat brain membrane histamine H3 receptor
# [18] = Ratio AUC in Wistar rat brain to plasma at 3 mg/kg, po or iv measured upto 5 hrs by HPLC-MS/MS analysis; format: ADME, organism-based; conditions: brain and plasma, read-out: Ratio AUC
# [19] = test system: Rattus norvegicus; test: Anti-dipsogenic activity in imetit-induced Wistar rat model assessed as inhibition of imetit-induced water intake at 10 mg/kg, po preadministered for 30 mins followed by imetit stimulation and measured after 40 mins relative to control; format: functional; conditions: 1.167 h, time 70 min
# [20] = Stability in human microsomes; format: ADME, Microsome
# Histamine H3 receptor (Rattus norvegicus, UniProt Q9QYN8), sequence (Q9QYN8 whole entry): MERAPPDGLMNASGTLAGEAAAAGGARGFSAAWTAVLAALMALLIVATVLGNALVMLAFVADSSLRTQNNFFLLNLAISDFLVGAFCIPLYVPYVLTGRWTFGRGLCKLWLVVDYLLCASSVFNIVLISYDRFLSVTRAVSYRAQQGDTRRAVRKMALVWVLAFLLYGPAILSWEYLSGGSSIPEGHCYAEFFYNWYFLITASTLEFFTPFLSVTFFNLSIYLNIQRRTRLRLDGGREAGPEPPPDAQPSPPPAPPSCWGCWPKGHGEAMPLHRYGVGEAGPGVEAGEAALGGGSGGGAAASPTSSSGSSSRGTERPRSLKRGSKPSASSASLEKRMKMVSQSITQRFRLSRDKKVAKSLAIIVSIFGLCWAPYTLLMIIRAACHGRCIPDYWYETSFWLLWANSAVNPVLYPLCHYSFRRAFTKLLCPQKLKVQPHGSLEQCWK
# T1 sequence (Q9Y5N1 whole entry): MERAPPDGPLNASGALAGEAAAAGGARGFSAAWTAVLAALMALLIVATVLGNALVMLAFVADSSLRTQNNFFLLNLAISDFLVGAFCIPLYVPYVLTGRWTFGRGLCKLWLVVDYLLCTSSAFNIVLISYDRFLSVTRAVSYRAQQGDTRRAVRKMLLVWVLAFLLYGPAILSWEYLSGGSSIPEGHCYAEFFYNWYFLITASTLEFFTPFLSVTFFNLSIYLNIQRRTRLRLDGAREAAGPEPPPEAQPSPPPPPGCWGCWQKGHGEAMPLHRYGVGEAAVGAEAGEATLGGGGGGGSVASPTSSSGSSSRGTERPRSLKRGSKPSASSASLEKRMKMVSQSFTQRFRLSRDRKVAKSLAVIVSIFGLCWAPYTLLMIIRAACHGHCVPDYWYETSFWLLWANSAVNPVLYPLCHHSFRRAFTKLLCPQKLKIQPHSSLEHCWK
Structure (SMILES),Ki [1] [nM],EC50 [2] [nM],Ki [3] [nM],IC50 [4] [nM],Activity [5] [%],Activity [6] [%],Ki [7] [nM],other results
C[C@]12CC[C@H]3[C@@H](CC=C4C[C@@H](OCCCN5CCCC5)CC[C@@]43C)[C@@H]1CC[C@@H]2N1CCCC1,4.3,,10.2,,,92,,
C[C@]12CC[C@@H]3c4ccc(OCc5ccc(Cl)cn5)cc4CC[C@H]3[C@@H]1CC[C@@H]2N1CCCC1,1.6,,49,,,66,705,
C[C@]12CC[C@@H]3c4ccc(OCc5cccnc5)cc4CC[C@H]3[C@@H]1CC[C@@H]2N1CCCC1,3,,19,,,57,797,
C[C@]12CC[C@@H]3c4ccc(OCCCN5CCC(O)C5)cc4CC[C@H]3[C@@H]1CC[C@@H]2N1CCCC1 (some centres not stated),5.2,1.2,16.8,3.9,64,,,
C[C@]12CC[C@@H]3c4ccc(OCc5ccccn5)cc4CC[C@H]3[C@@H]1CC[C@@H]2N1CCCC1,2.2,1,7.6,50.8,,51,1080,Vd [8]: 19.7 L/kg; Stability [9]: 67%; Papp [10]: 10.1 ×10⁻⁶ cm/s; solubility thermodynamic at 24 h [11]: 93 µM; Emax [12]: 23%; half-life [13]: 1.5 h; half-life [14]: 1.5 h; Tmax [15]: 1 h; bioavailability [16]: 25.4%; Ratio Ki [17]: 141; Kp at 5 h [18]: 41.1; inhibition in vivo at 10 mg/kg [19]: 122%; Stability [20]: 93%
Clc1ccc(CCCOCCCN2CCCCC2)cc1 [PITOLISANT],,,,,,,19,Emax ([12]; filed as inverse agonist): 55%
C[C@]12CC[C@@H]3c4ccc(OCCCN5CCC(O)CC5)cc4CC[C@H]3[C@@H]1CC[C@@H]2N1CCCC1,5,4.4,24.3,4.2,55,,,

# Further lines, with some results ahead:
Ki [1] [nM],EC50 [2] [nM],Ki [3] [nM],IC50 [4] [nM],Activity [5] [%],Activity [6] [%],Ki [7] [nM],Structure (SMILES),other results
0.6,0.6,2.1,17.5,77,,,C[C@]12CC[C@@H]3c4ccc(OCCCN5CCCCCC5)cc4CC[C@H]3[C@@H]1CC[C@@H]2N1CCCC1,
0.6,0.6,3.2,17.4,73,,,C[C@]12CC[C@@H]3c4ccc(OCCCN5CCNC(=O)C5)cc4CC[C@H]3[C@@H]1CC[C@@H]2N1CCCC1,
1.4,0.8,6.1,16,71,,,C[C@@]12CC[C@@H]3c4ccc(OCCCN5CCCC5)cc4CC[C@H]3[C@@H]1CCC2N1CCCC1 (some centres not stated),
0.8,0.7,24.8,7.5,73,,,C[C@]12CC[C@@H]3c4ccc(OCCCCN5CCCC5)cc4CC[C@H]3[C@@H]1CC[C@@H]2N1CCCC1,
0.8,0.9,16.6,16,69,,,CC[C@]12CC[C@@H]3c4ccc(OCCCN5CCCC5)cc4CC[C@H]3[C@@H]1CC[C@@H]2N1CCCC1,
